# Experimental data as given in article PMC3325286, “Structural and Functional Diversity of Acidic Scorpion Potassium Channel Toxins” (PLoS ONE, 2012).
# Positions of bridges follow the written chain, without caps; N, C: chain ends. Residues, ends and D or L forms follow the SMILES beside them. No end group written: not given here.
# Columns and labels:
# KCNQ1 channel [1] = biological target: T1, KCNQ1 channel (Homo sapiens, UniProt P15382+P51787); conditions: for Effect on KCNQ1 channel (in words): 10 µM concentration
# KCNQ1 channel [2] = biological target: T1, KCNQ1 channel; assay: cell-based; conditions: for inhibition at 10 µM: HEK293, read-out: Inhibition of KCNQ1 channel current; for inhibition at 1 µM: HEK293, read-out: Inhibition of KCNQ1 channel current, ImKTx104 and mutants
# Kv1.3 channel = assay: Patch-clamp inhibition of Kv1.3 channel current in transfected HEK293 cells; format: cell-based
# BKCa channel = assay: Patch-clamp inhibition of BKCa channel current in transfected HEK293 cells; format: cell-based; conditions: 1 µM concentration; n>3
# TRPV1 channel = assay: Patch-clamp inhibition of TRPV1 channel current in transfected HEK293 cells; format: cell-based; conditions: 1 µM concentration; n>3
# SKCa channel = assay: Patch-clamp inhibition of SKCa channel current in transfected HEK293 cells; format: cell-based; conditions: 1 µM concentration; n>3
# Kv1.1 channel = assay: Patch-clamp inhibition of Kv1.1 channel current in transfected HEK293 cells; format: cell-based; conditions: 1 µM ImKTx104 (Fig. S2); n>3
# Kv1.2 channel = assay: Patch-clamp inhibition of Kv1.2 channel current in transfected HEK293 cells; format: cell-based; conditions: 1 µM ImKTx104 (Fig. S2); n>3
# T1 sequence (P51787 whole entry, looked up): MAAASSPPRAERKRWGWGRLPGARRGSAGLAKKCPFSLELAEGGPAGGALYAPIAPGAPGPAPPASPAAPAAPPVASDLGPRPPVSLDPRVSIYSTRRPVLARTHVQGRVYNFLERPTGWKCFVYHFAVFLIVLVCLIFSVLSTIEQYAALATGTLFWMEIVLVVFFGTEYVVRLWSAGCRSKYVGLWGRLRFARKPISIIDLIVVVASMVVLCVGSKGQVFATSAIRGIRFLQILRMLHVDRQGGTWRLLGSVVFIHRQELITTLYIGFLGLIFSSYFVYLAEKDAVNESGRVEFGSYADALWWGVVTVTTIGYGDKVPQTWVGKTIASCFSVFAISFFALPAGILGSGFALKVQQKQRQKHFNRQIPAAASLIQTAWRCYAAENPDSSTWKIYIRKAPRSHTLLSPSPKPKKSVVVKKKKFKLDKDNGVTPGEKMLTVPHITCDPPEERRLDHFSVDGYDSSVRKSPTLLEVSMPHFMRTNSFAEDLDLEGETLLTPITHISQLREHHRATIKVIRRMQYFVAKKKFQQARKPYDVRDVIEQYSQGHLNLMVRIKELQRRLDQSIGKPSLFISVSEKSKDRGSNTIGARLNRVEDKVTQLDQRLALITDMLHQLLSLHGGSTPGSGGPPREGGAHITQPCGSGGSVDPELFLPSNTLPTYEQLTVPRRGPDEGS
molecule,measurement,setting,value
"CSCC[C@@H]1NC(=O)[C@@H]2CCCN2C(=O)[C@@H]2CSSC[C@@H]3NC(=O)[C@H](C(C)C)NC(=O)CNC(=O)[C@H](CC(=O)O)NC(=O)[C@H](CC(=O)O)NC(=O)[C@H](CSSC[C@H](NC(=O)CNC(=O)[C@@H](N)C(C)C)C(=O)N[C@@H](CCC(=O)O)C(=O)N[C@@H](CCC(=O)O)C(=O)N2)NC(=O)[C@H]([C@@H](C)O)NC(=O)[C@@H]2CCCN2C(=O)[C@H](CCCCN)NC(=O)[C@H](C)NC(=O)[C@H](CC(N)=O)NC(=O)[C@H](CCCCN)NC(=O)CNC(=O)[C@H](CCCCN)NC(=O)[C@H](CSSC[C@@H](C(=O)N[C@@H](CC(N)=O)C(=O)N[C@H](C(=O)O)C(C)C)NC(=O)[C@H](CC(N)=O)NC3=O)NC(=O)[C@H](Cc2c[nH]cn2)NC1=O [BmP02, reference compound] (H-VGCEECPMHCKGKNAKPTCDDGVCNCNV-OH; disulfide 3-19, 6-24, 10-26)",Effect on KCNQ1 channel (in words),KCNQ1 channel [1],only weak inhibitors
same,inhibition at 10 µM,KCNQ1 channel [2],23.3%
"CC[C@H](C)[C@@H]1NC(=O)[C@@H](NC(=O)[C@H](C)NC(=O)[C@H](CC(N)=O)NC(=O)CN)CSSC[C@@H](C(=O)N[C@@H](CC(=O)O)C(=O)N[C@@H](CCCCN)C(=O)O)NC(=O)[C@H](C)NC(=O)[C@H](CCCCN)NC(=O)[C@H](CC(=O)O)NC(=O)[C@@H]2CSSC[C@H](NC(=O)[C@H](C(C)C)NC(=O)[C@H](CCC(=O)O)NC1=O)C(=O)N[C@@H](CC(C)C)C(=O)N[C@@H](CCC(N)=O)C(=O)N[C@@H](Cc1c[nH]cn1)C(=O)N[C@@H]([C@@H](C)O)C(=O)NCC(=O)N[C@@H](CC(N)=O)C(=O)N1CCC[C@H]1C(=O)N[C@@H](C)C(=O)N[C@@H](CCC(=O)O)C(=O)N2 [HeTx203] (H-GNACIEVCLQHTGNPAECDKACDK-OH; disulfide 4-22, 8-18)",Effect on KCNQ1 channel (in words),KCNQ1 channel [1],only weakly inhibited
same,inhibition at 10 µM,KCNQ1 channel [2],17.8%
"CC[C@H](C)[C@@H]1NC(=O)[C@@H](NC(=O)[C@H](C)NC(=O)[C@H](CC(N)=O)NC(=O)CN)CSSC[C@@H](C(=O)N[C@@H](CC(=O)O)C(=O)N[C@@H](CCCCN)C(=O)O)NC(=O)[C@@H]2CCCN2C(=O)[C@H](CCCCN)NC(=O)[C@H](CC(=O)O)NC(=O)[C@@H]2CSSC[C@H](NC(=O)[C@H](C(C)C)NC(=O)[C@H](CCC(=O)O)NC1=O)C(=O)N[C@@H](CC(C)C)C(=O)N[C@@H](CCC(N)=O)C(=O)N[C@@H](Cc1c[nH]cn1)C(=O)N[C@@H]([C@@H](C)O)C(=O)NCC(=O)N[C@@H](CC(N)=O)C(=O)N1CCC[C@H]1C(=O)N[C@@H](C)C(=O)N[C@@H](CCC(=O)O)C(=O)N2 [HeTx204] (H-GNACIEVCLQHTGNPAECDKPCDK-OH; disulfide 4-22, 8-18)",Effect on Kv1.3 channel (in words),Kv1.3 channel,effectively blocked
same,Effect on BKCa channel (in words),BKCa channel,negligible effects
same,Washout of toxin from KCNQ1 channel (in words),KCNQ1 channel [1]; 10 µM,could not be removed
same,Effect on KCNQ1 channel (in words),KCNQ1 channel [1],effectively blocked
same,Effect on TRPV1 channel (in words),TRPV1 channel,negligible effects
same,Effect on SKCa channel (in words),SKCa channel,negligible effects
same,inhibition at 10 µM,KCNQ1 channel [2],44.9%
"CC[C@H](C)[C@@H]1NC(=O)[C@H]([C@@H](C)O)NC(=O)[C@H](C)NC(=O)[C@H](Cc2ccc(O)cc2)NC(=O)[C@@H]2CSSC[C@@H](C(=O)N[C@@H](CCSC)C(=O)O)NC(=O)[C@H](CCCCN)NC(=O)[C@@H]3CSSC[C@H](NC(=O)[C@H](CC(=O)O)NC(=O)[C@H](CCC(=O)O)NC(=O)[C@H](Cc4c[nH]cn4)NC(=O)[C@H]([C@@H](C)O)NC(=O)[C@H](C(C)C)NC(=O)[C@@H](NC(=O)[C@H](C)N)CSSC[C@H](NC(=O)[C@H]([C@@H](C)O)NC(=O)CNC1=O)C(=O)N[C@@H](C(C)C)C(=O)N[C@@H](CC(=O)O)C(=O)NCC(=O)N[C@@H](CCCCN)C(=O)N3)C(=O)N[C@@H]([C@@H](C)O)C(=O)N[C@@H](CC(C)C)C(=O)N[C@@H](CC(C)C)C(=O)N2 [ImKTX104-D14A] (H-ACVTHEDCTLLCYATIGTCVDGKCKCM-OH; disulfide 2-19, 8-24, 12-26)",inhibition at 1 µM,KCNQ1 channel [2],25.6%
"CC[C@H](C)[C@@H]1NC(=O)[C@H]([C@@H](C)O)NC(=O)[C@H](CC(=O)O)NC(=O)[C@H](Cc2ccc(O)cc2)NC(=O)[C@@H]2CSSC[C@@H](C(=O)N[C@@H](CCSC)C(=O)O)NC(=O)[C@H](CCCCN)NC(=O)[C@@H]3CSSC[C@H](NC(=O)[C@H](CC(=O)O)NC(=O)[C@H](CCC(=O)O)NC(=O)[C@H](Cc4c[nH]cn4)NC(=O)[C@H]([C@@H](C)O)NC(=O)[C@H](C(C)C)NC(=O)[C@@H](NC(=O)[C@H](C)N)CSSC[C@H](NC(=O)[C@H]([C@@H](C)O)NC(=O)CNC1=O)C(=O)N[C@@H](C(C)C)C(=O)N[C@@H](CC(=O)O)C(=O)NCC(=O)N[C@@H](C)C(=O)N3)C(=O)N[C@@H]([C@@H](C)O)C(=O)N[C@@H](CC(C)C)C(=O)N[C@@H](CC(C)C)C(=O)N2 [ImKTX104-K23A] (H-ACVTHEDCTLLCYDTIGTCVDGACKCM-OH; disulfide 2-19, 8-24, 12-26)",inhibition at 1 µM,KCNQ1 channel [2],15.5%
"CC[C@H](C)[C@@H]1NC(=O)[C@H]([C@@H](C)O)NC(=O)[C@H](CC(=O)O)NC(=O)[C@H](Cc2ccc(O)cc2)NC(=O)[C@@H]2CSSC[C@@H](C(=O)N[C@@H](CCSC)C(=O)O)NC(=O)[C@H](C)NC(=O)[C@@H]3CSSC[C@H](NC(=O)[C@H](CC(=O)O)NC(=O)[C@H](CCC(=O)O)NC(=O)[C@H](Cc4c[nH]cn4)NC(=O)[C@H]([C@@H](C)O)NC(=O)[C@H](C(C)C)NC(=O)[C@@H](NC(=O)[C@H](C)N)CSSC[C@H](NC(=O)[C@H]([C@@H](C)O)NC(=O)CNC1=O)C(=O)N[C@@H](C(C)C)C(=O)N[C@@H](CC(=O)O)C(=O)NCC(=O)N[C@@H](CCCCN)C(=O)N3)C(=O)N[C@@H]([C@@H](C)O)C(=O)N[C@@H](CC(C)C)C(=O)N[C@@H](CC(C)C)C(=O)N2 [ImKTX104-K25A] (H-ACVTHEDCTLLCYDTIGTCVDGKCACM-OH; disulfide 2-19, 8-24, 12-26)",inhibition at 1 µM,KCNQ1 channel [2],21.4%
"CC[C@H](C)[C@@H]1NC(=O)[C@H]([C@@H](C)O)NC(=O)[C@H](CC(=O)O)NC(=O)[C@H](Cc2ccc(O)cc2)NC(=O)[C@@H]2CSSC[C@@H](C(=O)N[C@@H](CCSC)C(=O)O)NC(=O)[C@H](CCCCN)NC(=O)[C@@H]3CSSC[C@H](NC(=O)[C@H](CC(=O)O)NC(=O)[C@H](CCC(=O)O)NC(=O)[C@H](Cc4c[nH]cn4)NC(=O)[C@H]([C@@H](C)O)NC(=O)[C@H](C(C)C)NC(=O)[C@@H](NC(=O)[C@H](C)N)CSSC[C@H](NC(=O)[C@H]([C@@H](C)O)NC(=O)CNC1=O)C(=O)N[C@@H](C(C)C)C(=O)N[C@@H](CC(=O)O)C(=O)NCC(=O)N[C@@H](CCCCN)C(=O)N3)C(=O)N[C@@H]([C@@H](C)O)C(=O)N[C@@H](CC(C)C)C(=O)N[C@@H](CC(C)C)C(=O)N2 [ImKTx104] (H-ACVTHEDCTLLCYDTIGTCVDGKCKCM-OH; disulfide 2-19, 8-24, 12-26)",Effect on Kv1.3 channel (in words),Kv1.3 channel,minor effect
same,Effect on BKCa channel (in words),BKCa channel,negligible effects
same,Effect on KCNQ1 channel (in words),KCNQ1 channel [1],effectively blocked
same,"τoff (time constant of washing off process), KCNQ1 channel current",KCNQ1 channel [1]; measured at 10 µM,11.73 s
same,"τon (time constant of binding process), KCNQ1 channel current",KCNQ1 channel [1]; measured at 10 µM,81.32 s
same,Effect on Kv1.1 channel (in words),Kv1.1 channel,no effect
same,Effect on TRPV1 channel (in words),TRPV1 channel,negligible effects
same,Effect on SKCa channel (in words),SKCa channel,negligible effects
same,inhibition at 10 µM,KCNQ1 channel [2],41.7%
same,inhibition at 1 µM,KCNQ1 channel [2],27.5%
same,Effect on Kv1.2 channel (in words),Kv1.2 channel,no effect
"CC[C@H](C)[C@@H]1NC(=O)[C@H](C)NC(=O)[C@H](CCC(=O)O)NC(=O)[C@H](CO)NC(=O)[C@H]([C@@H](C)CC)NC(=O)[C@@H]2CCCN2C(=O)[C@@H](NC(=O)[C@H](CC(=O)O)NC(=O)CNC(=O)[C@@H](N)CCC(=O)O)CSSC[C@@H]2NC(=O)[C@H](C(C)C)NC(=O)[C@H](CCC(=O)O)NC(=O)[C@H](C(C)C)NC(=O)[C@H](CCCCN)NC(=O)[C@H](CCC(=O)O)NC(=O)[C@H](CCCCN)NC(=O)[C@@H]3CSSC[C@@H](C(=O)N[C@@H](CO)C(=O)NCC(=O)O)NC(=O)[C@H](CCCCN)NC(=O)[C@H](CSSC[C@H](NC(=O)[C@H](CCCCN)NC1=O)C(=O)N[C@@H](C(C)C)C(=O)N[C@@H](CCC(=O)O)C(=O)N[C@@H](CCCCN)C(=O)N3)NC(=O)[C@H](C(C)C)NC(=O)CNC(=O)[C@@H]1CCCN1C(=O)[C@H](CCC(=O)O)NC2=O [LmKTx2] (H-EGDCPISEAIKCVEKCKEKVEVCEPGVCKCSG-OH; disulfide 4-23, 12-28, 16-30)",Effect on Kv1.3 channel (in words),Kv1.3 channel,minor effect
same,Effect on KCNQ1 channel (in words),KCNQ1 channel [1],only weakly inhibited
same,inhibition at 10 µM,KCNQ1 channel [2],27.7%
"EDKLKCTKTDDCAKYCSQFTDVHPACLGGYCECLRWEGGISS (disulfide 6-26, 12-31, 16-33) [StKTx23]",Effect on Kv1.3 channel (in words),Kv1.3 channel,effectively blocked
same,Effect on KCNQ1 channel (in words),KCNQ1 channel [1],did not inhibit
same,inhibition at 10 µM,KCNQ1 channel [2],4.21%
